Assays:
HCT-116 [1] = experiment: Antiproliferative activity against human HCT-116 cells assessed as cell viability after 72 hrs by MTT assay; format: functional
HepG2 = experiment: Antiproliferative activity against human HepG2 cells assessed as cell viability after 72 hrs by MTT assay; format: functional
A549 = experiment: Antiproliferative activity against human A549 cells assessed as cell viability after 72 hrs by MTT assay; format: functional
HCT-116 [2] = experiment: Antitumor activity against human HCT-116 cells xenografted in nude mouse assessed as inhibition of tumor growth at 25 mg/kg, po for 21 days; format: functional; settings: HCT-116, po, 504 h, time 21 day, read-out: TGI
[3] = Toxicity in nude mouse xenografted with human HCT-116 cells assessed as change in body weight at 25 mg/kg, po for 21 days (reference value: 2.2%); format: organism-based; settings: in vivo, 504 h, time 21 day
HCT-116 [4] = experiment: Induction of cell cycle arrest in human HCT-116 cells assessed as accumulation of cells at G1 phase at 20 nM after 24 hrs by flow cytometry (reference value: 40.5%); format: functional
HCT-116 [5] = experiment: Induction of cell cycle arrest in human HCT-116 cells assessed as accumulation of cells at G2/M phase at 20 nM after 24 hrs by flow cytometry (reference value: 16.35%); format: functional
SW-620 = experiment: Antiproliferative activity against human SW-620 cells assessed as cell viability after 72 hrs by MTT assay; format: functional
[6] = biological target: Tubulin beta (Homo sapiens) (UniProt P68371+Q9H4B7+Q13509+P04350+Q3ZCM7+P07437+Q13885+Q9BVA1+Q9BUF5+A6NNZ2); experiment: Inhibition of N,N'-Ethylenebis(iodoacetamide) binding to beta-tubulin in human HCT-116 cells assessed as reduction in EBI/beta-tubulin adduct formation preincubated for 2 hrs followed by EBI addition and measured after 1.5 hrs by Western blot analysis; format: cell-based; settings: dose 0.2-25 µM, time 3.5 hrs
HT-29 = experiment: Antiproliferative activity against human HT-29 cells assessed as cell viability after 72 hrs by MTT assay; format: functional
HCT-116 [7] = experiment: Induction of apoptosis in human HCT-116 cells assessed as viable cells at 20 nM after 24 hrs by annexinV and 7-ADD staining based flow cytometry (reference value: 96.7%); format: functional; settings: read-out: Activity
HCT-116 [8] = experiment: Induction of apoptosis in human HCT-116 cells assessed as viable cells at 40 nM after 24 hrs by annexinV and 7-ADD staining based flow cytometry (reference value: 96.7%); format: functional; settings: read-out: Activity
Tubulin (Homo sapiens) [9] = biological target: T1, Tubulin (Homo sapiens) (UniProt P68371+Q9H4B7+P0DPH7+P68366+Q13509+Q71U36+P04350+Q3ZCM7+P07437+P68363+Q9BQE3+Q6PEY2+Q13885+Q9BVA1+Q9BUF5); experiment: Inhibition of tubulin polymerization in human HCT-116 cells assessed as microtubule network polymerization after 24 hrs by immunofluorescence analysis; format: cell-based; settings: dose 20-40 nM
HCT-116 [10] = experiment: Induction of cell cycle arrest in human HCT-116 cells assessed as accumulation of cells at G1 phase at 10 nM after 24 hrs by flow cytometry (reference value: 40.5%); format: functional
HCT-116 [11] = experiment: Antitumor activity against human HCT-116 cells xenografted in nude mouse assessed as inhibition of tumor growth at 12.5 mg/kg, po for 21 days; format: functional; settings: HCT-116, po, 504 h, time 21 day, read-out: TGI
HCT-116 [12] = experiment: Induction of apoptosis in human HCT-116 cells assessed as necrotic cells at 10 nM after 24 hrs by annexinV and 7-ADD staining based flow cytometry (reference value: 0.9%); format: functional
HCT-116 [13] = experiment: Induction of apoptosis in human HCT-116 cells assessed as necrotic cells at 40 nM after 24 hrs by annexinV and 7-ADD staining based flow cytometry (reference value: 0.9%); format: functional
HCT-116 [14] = experiment: Induction of apoptosis in human HCT-116 cells assessed as late apoptotic cells at 10 nM after 24 hrs by annexinV and 7-ADD staining based flow cytometry (reference value: 1.5%); format: functional
HCT-116 [15] = experiment: Induction of apoptosis in human HCT-116 cells assessed as early apoptotic cells at 20 nM after 24 hrs by annexinV and 7-ADD staining based flow cytometry (reference value: 0.9%); format: functional
[16] = Cytotoxicity against HUVEC assessed as cell viability after 72 hrs by MTT assay; format: cell-based; settings: human, HUVEC cells
HCT-116 [17] = experiment: Induction of apoptosis in human HCT-116 cells assessed as early apoptotic cells at 40 nM after 24 hrs by annexinV and 7-ADD staining based flow cytometry (reference value: 0.9%); format: functional
HCT-116 [18] = experiment: Induction of cell cycle arrest in human HCT-116 cells assessed as accumulation of cells at G2/M phase at 10 nM after 24 hrs by flow cytometry (reference value: 16.35%); format: functional
HCT-116 [19] = experiment: Induction of apoptosis in human HCT-116 cells assessed as necrotic cells at 20 nM after 24 hrs by annexinV and 7-ADD staining based flow cytometry (reference value: 0.9%); format: functional
HCT-116 [20] = experiment: Induction of cell cycle arrest in human HCT-116 cells assessed as accumulation of cells at S phase at 10 nM after 24 hrs by flow cytometry (reference value: 43.12%); format: functional
[21] = (§1) Inhibition of porcine brain tubulin polymerization by fluorescence based assay; format: cell-based, Sus scrofa domesticus, 1-87 tumor cell line
1-87 tumor cell line = experiment: as §1; settings: Sus scrofa domesticus
Tubulin (Homo sapiens) [22] = biological target: T1, Tubulin (Homo sapiens); experiment: Inhibition of tubulin polymerization in human HCT-116 cells assessed as microtubule spindle formation after 24 hrs by immunofluorescence analysis; format: cell-based; settings: dose 20-40 nM
[23] = Toxicity in nude mouse xenografted with human HCT-116 cells assessed as change in body weight at 12.5 mg/kg, po for 21 days (reference value: 2.2%); format: organism-based; settings: in vivo, 504 h, time 21 day
HCT-116 [24] = experiment: Induction of apoptosis in human HCT-116 cells assessed as late apoptotic cells at 20 nM after 24 hrs by annexinV and 7-ADD staining based flow cytometry (reference value: 1.5%); format: functional
HCT-116 [25] = experiment: Induction of apoptosis in human HCT-116 cells assessed as viable cells at 10 nM after 24 hrs by annexinV and 7-ADD staining based flow cytometry (reference value: 96.7%); format: functional; settings: read-out: Activity
HCT-116 [26] = experiment: Induction of cell cycle arrest in human HCT-116 cells assessed as accumulation of cells at S phase at 20 nM after 24 hrs by flow cytometry (reference value: 43.12%); format: functional
HCT-116 [27] = experiment: Induction of apoptosis in human HCT-116 cells assessed as late apoptotic cells at 40 nM after 24 hrs by annexinV and 7-ADD staining based flow cytometry (reference value: 1.5%); format: functional
Tubulin (Homo sapiens) [28] = biological target: T1, Tubulin (Homo sapiens); experiment: Inhibition of tubulin polymerization in human HCT-116 cells assessed as complete microtubule depolymerization at 40 nM after 24 hrs by immunofluorescence analysis; format: cell-based
HCT-116 [29] = experiment: Induction of apoptosis in human HCT-116 cells assessed as early apoptotic cells at 10 nM after 24 hrs by annexinV and 7-ADD staining based flow cytometry (reference value: 0.9%); format: functional

Cc1ccc2[nH]nc(Nc3ccc4c(c3)OCO4)c2c1
GI50 (HCT-116 [1]): > 25 µM | GI50 (HepG2): > 25 µM | GI50 (A549): > 25 µM

COc1cc(Nc2n[nH]c3cc(C)ccc23)cc(OC)c1
GI50 (HCT-116 [1]): 0.7 µM | GI50 (HepG2): 0.2 µM | GI50 (A549): 1.1 µM

COc1ccc2c(Nc3ccc(OC)c(OC)c3)n[nH]c2c1
GI50 (HCT-116 [1]): 14.6 µM | GI50 (HepG2): > 25 µM | GI50 (A549): > 25 µM

COc1cc(Nc2n[nH]c3cccc(C)c23)cc(OC)c1OC
GI50 (HCT-116 [1]): 9.3 µM | GI50 (HepG2): 10.1 µM | GI50 (A549): 6.1 µM

COc1cc(Nc2n[nH]c3ccc(C)cc23)cc(OC)c1
GI50 (HCT-116 [1]): > 25 µM | GI50 (HepG2): > 25 µM | GI50 (A549): > 25 µM

COc1ccc(Nc2n[nH]c3cc(OC)ccc23)cc1
GI50 (HCT-116 [1]): 24.8 µM | GI50 (HepG2): > 25 µM | GI50 (A549): > 25 µM

COc1cc(Nc2n[nH]c3c(C)cccc23)cc(OC)c1OC
GI50 (HCT-116 [1]): 4.6 µM | GI50 (HepG2): 5.4 µM | GI50 (A549): 4.3 µM

COc1ccc(Nc2n[nH]c3ccc(C)cc23)cc1
GI50 (HCT-116 [1]): > 25 µM | GI50 (HepG2): > 25 µM | GI50 (A549): > 25 µM

COc1cc(Nc2n[nH]c3cc(OC)ccc23)cc(OC)c1
GI50 (HCT-116 [1]): 0.96 µM | GI50 (HepG2): 0.78 µM | GI50 (A549): 0.51 µM

COc1cc(Nc2n[nH]c3ccccc23)cc(OC)c1OC
GI50 (HCT-116 [1]): 18.9 µM | GI50 (HepG2): 24.1 µM | GI50 (A549): 19.4 µM

COc1ccc(Nc2n[nH]c3ccc(C)cc23)cc1OC
GI50 (HCT-116 [1]): 22.3 µM | GI50 (HepG2): > 25 µM | GI50 (A549): > 25 µM

COc1ccc(Nc2n[nH]c3cc(F)ccc23)cc1OC
GI50 (HCT-116 [1]): 16.7 µM | GI50 (HepG2): > 25 µM | GI50 (A549): > 25 µM

O=c1[nH]cc(F)c(=O)[nH]1 [FLUOROURACIL]
inhibition in vivo at 25 mg/kg (HCT-116 [2]): 45.5% | Activity [3]: 21.8%

COc1cc(Nc2n[nH]c3cc(F)ccc23)cc(OC)c1OC
GI50 (HCT-116 [1]): 5.3 µM | GI50 (HepG2): 16 µM | GI50 (A549): 21.3 µM

COc1ccc(/C=C\c2cc(OC)c(OC)c(OC)c2)cc1O [COMBRETASTATIN A4]
GI50 (HCT-116 [1]): 0.006 µM | GI50 (HepG2): 0.002 µM | GI50 (A549): 0.167 µM

COc1ccc(Nc2n[nH]c3cc(C)ccc23)cc1
GI50 (HCT-116 [1]): > 25 µM | GI50 (HepG2): > 25 µM | GI50 (A549): > 25 µM

Fc1ccc2c(Nc3ccc4c(c3)OCO4)n[nH]c2c1
GI50 (HCT-116 [1]): > 25 µM | GI50 (HepG2): > 25 µM | GI50 (A549): > 25 µM

COc1ccc(Nc2n[nH]c3cc(F)ccc23)cc1
GI50 (HCT-116 [1]): > 25 µM | GI50 (HepG2): > 25 µM | GI50 (A549): > 25 µM

COc1ccc2c(Nc3ccc4c(c3)OCO4)n[nH]c2c1
GI50 (HCT-116 [1]): > 25 µM | GI50 (HepG2): > 25 µM | GI50 (A549): > 25 µM

Cc1ccc2c(Nc3ccc4c(c3)OCO4)n[nH]c2c1
GI50 (HCT-116 [1]): 23.7 µM | GI50 (HepG2): > 25 µM | GI50 (A549): > 25 µM

COc1cc(Nc2n[nH]c3ccc(C)cc23)cc(OC)c1OC
GI50 (HCT-116 [1]): 2.6 µM | GI50 (HepG2): 4 µM | GI50 (A549): 1.1 µM

COc1cc(Nc2n[nH]c3cc(C)ccc23)cc(OC)c1OC
Activity (HCT-116 [4]): 14.25% | Activity (HCT-116 [5]): 81.07% | GI50 (SW-620): 0.008 µM | GI50 (HCT-116 [1]): 0.015 µM | inhibition [6]: Dose-dependent effect | GI50 (HT-29): 0.031 µM | viability at 0.02 µM (HCT-116 [7]): 75.4% | viability at 0.04 µM (HCT-116 [8]): 62.2% | inhibition (Tubulin (Homo sapiens) [9]): Dose-dependent effect | Activity (HCT-116 [10]): 34.54% | inhibition in vivo at 12.5 mg/kg (HCT-116 [11]): 27.4% | Activity (HCT-116 [12]): 2.7% | Activity (HCT-116 [13]): 1.5% | Activity (HCT-116 [14]): 12.7% | Activity (HCT-116 [15]): 8.9% | GI50 at 72 h [16]: > 25 µM | Activity (HCT-116 [17]): 15.4% | GI50 (HepG2): 0.027 µM | Activity (HCT-116 [18]): 29% | inhibition in vivo at 25 mg/kg (HCT-116 [2]): 45.3% | Activity (HCT-116 [19]): 2.1% | Activity [3]: 6.5% | Activity (HCT-116 [20]): 36.46% | IC50 [21]: 3.39 µM | inhibition (1-87 tumor cell line): Dose-dependent effect | inhibition (Tubulin (Homo sapiens) [22]): Dose-dependent effect | GI50 (A549): 0.033 µM | Activity [23]: 2.7% | Activity (HCT-116 [24]): 13.7% | viability at 0.01 µM (HCT-116 [25]): 79.9% | Activity (HCT-116 [26]): 4.68% | Activity (HCT-116 [27]): 20.9% | inhibition (Tubulin (Homo sapiens) [28]): 100% | Activity (HCT-116 [29]): 4.7%

COc1ccc(Nc2n[nH]c3cc(C)ccc23)cc1OC
GI50 (HCT-116 [1]): 2.26 µM | GI50 (HepG2): 0.63 µM | GI50 (A549): 0.99 µM

Reference: ChEMBL document CHEMBL4732043, “The discovery of novel indazole derivatives as tubulin colchicine site binding agents that displayed potent antitumor activity both in vitro and in vivo” (Eur J Med Chem, 2020)
